# Patent publication US20060281789A1, “Protein kinase inhibitors” (KYOWA HAKKO KOGYO CO., LTD, priority 2003, published 2006)
# Structures can show the parent of a compound that is named as a salt.
# How the values were obtained:
# [1] = tested on: K562; test: Cytostatic activity on human chronic myeloid leukemia cell line K562 (WST-1); type: cell-based; settings: 10 μmol/L, 72 hours, read-out: K562 (%) cytostatic rate
# Protocol: (§1) The cytostatic rates of a test compound on human acute myeloid leukemia cell lines MV-4-11 and ML-1, and human chronic myeloid leukemia cell line K562 were determined in the following manner.
# (§2) Each cell was cultured using Roswell Park Memorial Institute's Medium (RPMI) 1640 (Gibco, Catalog No. 11875-093) containing 10% fetal bovine serum (Gibco, Catalogue No. 10437-028) and penicillin/streptomycin (1:1) (Gibco, Catalogue No. 15140-122). Each 80 μL of the MV-4-11 cell having a concentration of 7.5×10^4 cells/mL (or the ML-1 cell or K562 cell having a concentration of 2.5×10^4 cells/mL) was inoculated to wells of a TC MICROWELL 96U plate (Nalge Nunc International, Catalogue No. 163320) and was cultured in a 5% carbon dioxide gas incubator at 37° C. for 4 hours. As a blank, only RPMI medium (80 μL) was added to a well. Each 20 μL of a solution of the test compound in dimethyl sulfoxide (DMSO) which was prepared to make the final concentration to 3.16 μmol/L or 10 μmol/L, was added to the MV-4-11 cell, ML-1 cell and K562 cell, respectively. Each 20 μL of DMSO was added to the control well and the blank well to a final concentration of 0.1%. After adding the test compound, the cells were incubated in a 5% carbon dioxide gas incubator at 37° C. for 72 hours. After adding 20 μL of WST-1 reagent {4-[3-(4-iodophenyl)-2-(4-nitrophenyl)-2H-5-tetrazolio]-1,3-benzene disulfonate sodium salt) (Roche Diagnostics K.K., Catalogue No. 1644807) diluted to 50% with RPMI medium, the cells were further incubated at 37° C. for 2 hours. Then, the absorbances at 450 nm (reference wavelength: 690 nm) were determined with a microplate spectrophotometer SPECTRA max 340PC (Molecular Devices Corporation). The relative growth (%) of a well to which the test compound had been added was determined while setting the absorbance of a well to which not the test compound but DMSO alone had been added (control) at 100% and that of a well containing RPMI medium alone at 0%. The cytostatic rate (%) of the test compound was determined by subtracting the calculated relative growth from 100.
# [2] = molecular target: T1, human Flt-3 (Homo sapiens, UniProt P36888); test: Inhibitory activity on Flt-3 (GST-fused kinase, time-resolved fluoroimmunoassay); type: biochemical; settings: tested compound 10 μmol/L, ATP 10 μmol/L, sixty minutes
# T1 construct: fused to the N-terminus of the intracellular domain (583-953 amino acids) thereof; made in house; host or cells: insect cells (baculovirus)
# T1 sequence (P36888 583-953): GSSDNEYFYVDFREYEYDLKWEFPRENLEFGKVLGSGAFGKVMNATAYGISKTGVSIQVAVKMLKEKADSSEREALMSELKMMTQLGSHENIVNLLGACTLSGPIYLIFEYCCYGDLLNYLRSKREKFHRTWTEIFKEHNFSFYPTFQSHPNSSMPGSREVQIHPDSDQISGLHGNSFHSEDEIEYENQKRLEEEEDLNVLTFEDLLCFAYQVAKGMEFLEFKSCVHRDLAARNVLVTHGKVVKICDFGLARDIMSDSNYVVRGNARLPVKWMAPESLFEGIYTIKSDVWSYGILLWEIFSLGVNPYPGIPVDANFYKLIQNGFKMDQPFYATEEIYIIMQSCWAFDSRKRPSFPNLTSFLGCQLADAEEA
# Protocol: Flt-3 inhibitory activities were determined in the following manner.
# Flt-3 was prepared by allowing baculovirus to infect insect cells, which baculovirus expresses a protein comprising human Flt-3 with […]. […] Separately was prepared a solution containing, at final concentrations, GST-fused Flt-3 (100 μg/L), Tris-Cl (pH 7.5) (20 mmol/L), β-glycerophosphate (5 mmol/L), dithiothreitol (DTT) (1 mmol/L), Na3VO4 (0.1 mmol/L), MgCl2 (10 mmol/L), MnCl2 (10 mmol/L), ATP (10 μmol/L), bovine serum albumin (BSA) (0.1%), DMSO (0.1%), and a tested compound (10 μmol/L). The solution (each 60 μL) was placed into the wells of the plate for the determination of kinase reaction, followed by enzymatic reaction at room temperature for sixty minutes. After reacting, the reaction was stopped by the addition of 50 μL of a 25 mmol/L aqueous solution of ethylenediaminetetraacetic acid. […] The relative activity (%) of a well in which the enzyme and tested compound were added was determined by calculation with the value in a well to which the tested compound was not added being 100% and the value in a well to which the enzyme and the tested compound were not added being 0%. The Flt-3 inhibitory activity (%) of the tested compound was determined by subtracting the relative activity (%) from 100.
# [3] = tested on: ML-1; test: Cytostatic activity on human acute myeloid leukemia cell line ML-1 (WST-1); type: cell-based; settings: ML1, 3.16 μmol/L, 72 hours, read-out: ML-1 (%) cytostatic rate
# Protocol: as §1, §2
# [4] = tested on: Colo205; test: Cytostatic activity on human colon cancer cell line Colo205 (WST-1); type: cell-based; settings: 10 μmol/L, 72 hours
# Protocol: The cytostatic rate of a test compound on the human colon cancer cell line Colo205 was determined in the following manner.
# The cell was cultured using Roswell Park Memorial Institute's-Medium (RPMI) 1640 (Gibco, Catalog No. 11875-093) containing 10% fetal bovine serum (Gibco, Catalog-No. 10437-028) and penicillin/streptomycin (1:1) (Gibco, Catalog No. 15140-122). Each 80 μL of the Colo205 having a concentration of 1.25×10^4 cells/mL was inoculated to wells of a TC MICROWELL 96F plate (Nalge Nunc International, Catalog No. 167008) and was cultured in a 5% carbon dioxide gas incubator at 37° C. for 4 hours. As a blank, only RPMI (80 μL) was added to a well. Each 20 μL of a solution of the test compound in DMSO which was prepared to make the final concentration to 10 μmol/L, was added to the Colo205 cell. Each 20 μL of DMSO was added to the control well and the blank well to a final concentration of 0.1%. After adding the test compound, the cell was incubated in a 5% carbon dioxide gas incubator at 37° C. for 72 hours. The cytostatic rate (%) was then determined in the same manner as the method or the leukemia cell lines described above.
# [5] = tested on: MV-4-11; test: Cytostatic activity on human acute myeloid leukemia cell line MV-4-11 (WST-1); type: cell-based; settings: MV4-11, 3.16 μmol/L, 72 hours, read-out: MV-4-11 (%) cytostatic rate
# Protocol: as §1, §2
Compound,inhibition at 10 µM [1] [%],inhibition at 10 µM [2] [%],inhibition at 3.16 µM [3] [%],Colo205(%) cytostatic rate [4] [%],inhibition at 3.16 µM [5] [%]
"C(=C\c1n[nH]c2ccccc12)/c1ccc(OCCN2CCOCC2)cc1 [Compound 5, (E)-3-{2-[4-(2-morpholinoethoxy)phenyl]vinyl}-1H-indazole hydrochloride]",81,93.3,16,90,91
"CN(C)CCCOc1ccc(/C=C/c2n[nH]c3ccccc23)cc1 [Compound 10, (E)-3-{2-[4-(3-dimethylaminopropoxy)phenyl]vinyl}-1H-indazole hydrochloride]",95,–,92,–,97
"CN(C)CCOc1cccc(/C=C/c2n[nH]c3ccccc23)c1 [Compound 18, (E)-3-{2-[3-(2-dimethylaminoethoxy)phenyl]vinyl}-1H-indazole hydrochloride]",59,–,4.1,–,95
"C(=C\c1n[nH]c2ccccc12)/c1cccnc1 [Compound 21, (E)-3-[2-(3-pyridyl)vinyl]-1H-indazole]",41,–,25,–,79
"COc1ccc(/C=C/c2n[nH]c3ccccc23)cn1 [Compound 22, (E)-3-[2-(6-methoxypyridin-3-yl)vinyl]-1H-indazole]",63,–,9.2,–,82
"COc1cc(/C=C/c2n[nH]c3ccccc23)ccc1OCC(=O)N1CCOCC1 [Compound 40, (E)-N-{4-[2-(1H-indazol-3-yl)vinyl]-2-methoxyphenoxy}acetylmorpholine]",60,93.8,95,93,95
"N#Cc1cc(/C=C/c2n[nH]c3ccccc23)ccc1OCCN1CCOCC1 [Compound 47, (E)-3-{2-[3-cyano-4-(2-morpholinoethoxy)phenyl]vinyl}-1H-indazole]",75,94.5,89,68,98
"C(=C\c1n[nH]c2ccccc12)/c1ccc(N2CCNCC2)cc1.Cl [Compound 53, (E)-3-{2-[4-(piperazin-1-yl)phenyl]vinyl}-1H-indazole hydrochloride]",87,95.2,80,90,97
"CC(=O)N1CCN(c2ccc(/C=C/c3n[nH]c4ccccc34)cc2)CC1 [Compound 54, (E)-3-(2-[4-(4-acetylpiperazin-1-yl)phenyl]vinyl}-1H-indazole]",59,94,89,78,98
"CC(=O)N1CCN(c2ccc(/C=C/c3n[nH]c4ccccc34)cc2N)CC1 [Compound 58, (E)-3-{2-[4-(4-acetylpiperazin-1-yl)-3-aminophenyl]vinyl}-1H-indazole]",61,–,90,91,97
"Nc1cc(/C=C/c2n[nH]c3ccccc23)ccc1N1CCNCC1 [Compound 59, (E)-3-{2-[3-amino-4-(piperazin-1-yl)phenyl]vinyl}-1H-indazole]",84,–,86,89,98
